Measurements: ChEMBL document CHEMBL1201862, “PubChem BioAssay data set” (2004)
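Interpolation was linear, between the two tested concentrations surrounding the appropriate level; five concentrations were tested over 48 hours in 96-well plates. GI50: concentration for 50% inhibition of growth.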 Active and inactive are the calls of the source. Rule as the data show it: active = GI50 up to about 1.1 µM and inactive = higher.

Columns and labels:
Assay in all cases: inhibition of tumour cell growth, NCI panel, 48 h
[1] = system: ACHN
[2] = system: CCRF-CEM
[3] = system: DU-145
[4] = system: HL-60
[5] = system: HOP-92
[6] = system: Hs-578T
[7] = system: MDA-MB-231
[8] = system: Malme-3M
[9] = system: NCI-H23
[10] = system: NCI/ADR-RES
[11] = system: OVCAR-4
[12] = system: OVCAR-5
[13] = system: SK-MEL-5
[14] = system: SK-OV-3
[15] = system: TK-10
[16] = system: U-251
[17] = system: UO-31
[18] = system: M14
[19] = system: SNB-75
[20] = system: PC-3

| Compound | GI50 [1] | GI50 [2] | GI50 [3] | GI50 [4] | GI50 [5] | GI50 [6] | GI50 [7] | GI50 [8] | GI50 [9] | GI50 [10] | GI50 [11] | GI50 [12] | GI50 [13] | GI50 [14] | GI50 [15] | GI50 [16] | GI50 [17] | GI50 [18] | GI50 [19] | GI50 [20] |
| --- | --- | --- | --- | --- | --- | --- | --- | --- | --- | --- | --- | --- | --- | --- | --- | --- | --- | --- | --- | --- |
| CCOC(=O)N/N=C(/OCC)c1ccccc1 | > 100 µM (inactive) | > 100 µM (inactive) | > 100 µM (inactive) | > 100 µM (inactive) | > 100 µM (inactive) | > 100 µM (inactive) | > 100 µM (inactive) | > 100 µM (inactive) | > 100 µM (inactive) | > 100 µM (inactive) | > 100 µM (inactive) | > 100 µM (inactive) | > 100 µM (inactive) | > 100 µM (inactive) | > 100 µM (inactive) | > 100 µM (inactive) | > 100 µM (inactive) |  |  |  |
| CC1(Br)C(=O)NC(=O)N(C2CC(N=[N+]=[N-])C(CO)O2)C1N=[N+]=[N-] (centres undefined) | > 100 µM (inactive) | 53.1 µM (inactive) |  | > 100 µM (inactive) | > 100 µM (inactive) |  |  | 97.9 µM (inactive) | > 100 µM (inactive) |  | > 100 µM (inactive) | > 100 µM (inactive) | > 100 µM (inactive) | > 100 µM (inactive) | > 100 µM (inactive) | > 100 µM (inactive) | > 100 µM (inactive) | > 100 µM (inactive) | > 100 µM (inactive) |  |
| OCC(O)COCn1cc(Cn2ncc3c(O)ncnc32)nn1 (centres undefined) | > 100 µM (inactive) | > 100 µM (inactive) | > 100 µM (inactive) | > 100 µM (inactive) | > 100 µM (inactive) |  | > 100 µM (inactive) |  | > 100 µM (inactive) | > 100 µM (inactive) | > 100 µM (inactive) | > 100 µM (inactive) | > 100 µM (inactive) | > 100 µM (inactive) | > 100 µM (inactive) | > 100 µM (inactive) | > 100 µM (inactive) | > 100 µM (inactive) |  | > 100 µM (inactive) |
| COc1cc(C2c3cc4c(cc3OC(NN)C2C)OCO4)cc(OC)c1O (centres undefined) |  |  | 15.3 µM (inactive) | 2.24 µM (inactive) | 23.6 µM (inactive) |  | 9.2 µM (inactive) | 5.71 µM (inactive) | 27 µM (inactive) | 4.52 µM (inactive) | 26.8 µM (inactive) | 31.6 µM (inactive) | 4.13 µM (inactive) |  | 26.2 µM (inactive) | 7.23 µM (inactive) | 19.8 µM (inactive) | 10.4 µM (inactive) | 4.28 µM (inactive) | 10.4 µM (inactive) |
| Fc1cccc(F)c1C1SCc2nc3cc4ccccc4cc3n21 (centres undefined) |  | 22.4 µM (inactive) | 80.4 µM (inactive) |  | 16.3 µM (inactive) |  | 27.5 µM (inactive) | 39.2 µM (inactive) | 52.7 µM (inactive) | > 100 µM (inactive) | 3.16 µM (inactive) | 64 µM (inactive) | 21.8 µM (inactive) | 91 µM (inactive) | 96.6 µM (inactive) | 30.7 µM (inactive) |  | 29.7 µM (inactive) | 20.7 µM (inactive) | 23 µM (inactive) |
| COc1cc(C2C3=C(CCCC3=O)N(c3ccc(C)cc3)C3=C2C(=O)CCC3)c([N+](=O)[O-])cc1OC | 65.3 µM (inactive) | 40.7 µM (inactive) |  | 45.4 µM (inactive) | 52 µM (inactive) | 75.9 µM (inactive) |  |  | > 100 µM (inactive) | > 100 µM (inactive) | 45.4 µM (inactive) | > 100 µM (inactive) | 64.6 µM (inactive) | > 100 µM (inactive) | > 100 µM (inactive) | 42 µM (inactive) | > 100 µM (inactive) | > 100 µM (inactive) | 24.4 µM (inactive) | > 100 µM (inactive) |
| CC1=CC(=O)/C(=C(/C)NCCN(CCN/C(C)=C2\C(=O)C=C(C)OC2=O)CCN/C(C)=C2\C(=O)C=C(C)OC2=O)C(=O)O1 | > 100 µM (inactive) | > 100 µM (inactive) |  | > 100 µM (inactive) |  | > 100 µM (inactive) | > 100 µM (inactive) |  |  | > 100 µM (inactive) | > 100 µM (inactive) | > 100 µM (inactive) | > 100 µM (inactive) | > 100 µM (inactive) | > 100 µM (inactive) | > 100 µM (inactive) | > 100 µM (inactive) | > 100 µM (inactive) | > 100 µM (inactive) | > 100 µM (inactive) |
| COc1cc(N(Cc2ccc3nc(OC)c(OC)nc3c2)Cc2ccc3nc(OC)c(OC)nc3c2)cc(OC)c1OC | 42.2 µM (inactive) |  | > 50 µM (inactive) | > 50 µM (inactive) |  | 7.67 µM (inactive) |  | > 50 µM (inactive) | > 50 µM (inactive) | > 50 µM (inactive) | > 50 µM (inactive) | > 50 µM (inactive) | > 50 µM (inactive) | 29.1 µM (inactive) | 30.8 µM (inactive) | 19.8 µM (inactive) | 31.5 µM (inactive) | > 50 µM (inactive) | 6.9 µM (inactive) | > 50 µM (inactive) |
| O=C(CCC1CCCCC1)NCc1ccc(C(=O)O)cc1 | > 100 µM (inactive) | 47.1 µM (inactive) | > 100 µM (inactive) |  | > 100 µM (inactive) |  | > 100 µM (inactive) | > 100 µM (inactive) | > 100 µM (inactive) | > 100 µM (inactive) | > 100 µM (inactive) | > 100 µM (inactive) | > 100 µM (inactive) | > 100 µM (inactive) | > 100 µM (inactive) | > 100 µM (inactive) | > 100 µM (inactive) | > 100 µM (inactive) | > 100 µM (inactive) | > 100 µM (inactive) |
| NS(=O)(=O)c1nnc(NS(=O)(=O)c2ccc(F)cc2)s1 | > 100 µM (inactive) | > 100 µM (inactive) | > 100 µM (inactive) |  | > 100 µM (inactive) | > 100 µM (inactive) | > 100 µM (inactive) |  | > 100 µM (inactive) | > 100 µM (inactive) | > 100 µM (inactive) | > 100 µM (inactive) | > 100 µM (inactive) | > 100 µM (inactive) | > 100 µM (inactive) | > 100 µM (inactive) | > 100 µM (inactive) | > 100 µM (inactive) |  |  |
| COC(=O)C(CNC(=O)/C=C/c1ccc(OC(C)=O)c(OC(C)=O)c1)NC(=O)/C=C/c1ccc(OC(C)=O)c(OC(C)=O)c1 (centres undefined) | > 100 µM (inactive) | 42.4 µM (inactive) | > 100 µM (inactive) |  | > 100 µM (inactive) | > 100 µM (inactive) | > 100 µM (inactive) | > 100 µM (inactive) | > 100 µM (inactive) |  | > 100 µM (inactive) | > 100 µM (inactive) | > 100 µM (inactive) | 57.5 µM (inactive) | > 100 µM (inactive) | 88.7 µM (inactive) | > 100 µM (inactive) | > 100 µM (inactive) |  | > 100 µM (inactive) |
| COc1ccc(NC(=S)c2ccc(CN3CCCCC3)s2)cc1 | 31 µM (inactive) | 14.8 µM (inactive) | 38.2 µM (inactive) | 14.3 µM (inactive) |  | 12.6 µM (inactive) |  | 17.5 µM (inactive) | 12.5 µM (inactive) | 23 µM (inactive) | 29 µM (inactive) | 16.4 µM (inactive) | 14.3 µM (inactive) | 16.4 µM (inactive) |  | 17.1 µM (inactive) | 18.4 µM (inactive) | 16.7 µM (inactive) |  | 25.6 µM (inactive) |
| CCCCCCCCCCCCCCCCOCC(COP(=O)([O-])OCC[n+]1ccc(N(C)C)cc1)OCC (centres undefined) | 16.8 µM (inactive) | 10.5 µM (inactive) | 16.5 µM (inactive) | 1.52 µM (inactive) | 17 µM (inactive) | 17.9 µM (inactive) | 8.55 µM (inactive) | 18.5 µM (inactive) | 18.6 µM (inactive) |  | 15.8 µM (inactive) |  | 17.8 µM (inactive) |  | 14.9 µM (inactive) | 11.7 µM (inactive) | 15.5 µM (inactive) | 12.4 µM (inactive) | 2.97 µM (inactive) |  |
| COc1c(O)cc2c(c1O)C1O[C@H](CO)C(O)[C@H](O)[C@H]1OC2=O (some centres undefined) | > 100 µM (inactive) | > 100 µM (inactive) | > 100 µM (inactive) | > 100 µM (inactive) | > 100 µM (inactive) |  | > 100 µM (inactive) | > 100 µM (inactive) | > 100 µM (inactive) | > 100 µM (inactive) | > 100 µM (inactive) | > 100 µM (inactive) | > 100 µM (inactive) | > 100 µM (inactive) | > 100 µM (inactive) | > 100 µM (inactive) |  | > 100 µM (inactive) | > 100 µM (inactive) | > 100 µM (inactive) |
| CC1=C(N2CC2)C(=O)c2nc3n(c2C1=O)CCC3O (centres undefined) | 0.152 µM (active) | 1.36 µM (inactive) | 0.0111 µM (active) | 0.566 µM (active) | 2.23 µM (inactive) | 0.0239 µM (active) |  | 0.176 µM (active) | 0.104 µM (active) |  | 0.0662 µM (active) | 0.423 µM (active) | 0.0216 µM (active) | 0.249 µM (active) | 0.09 µM (active) | 0.157 µM (active) | 0.388 µM (active) | 1.32 µM (inactive) | 0.485 µM (active) |  |
| COc1ccc(/C=C2\CN(C)CC3C2=NN(c2ccccc2)C3c2ccc(OC)cc2)cc1 (centres undefined) | 77.1 µM (inactive) | > 100 µM (inactive) | > 100 µM (inactive) |  | 28 µM (inactive) | 42.8 µM (inactive) |  | 41.7 µM (inactive) | > 100 µM (inactive) | > 100 µM (inactive) | > 100 µM (inactive) | > 100 µM (inactive) | > 100 µM (inactive) | 16.6 µM (inactive) | 26.1 µM (inactive) |  | > 100 µM (inactive) | 27.2 µM (inactive) |  |  |
